Assay results as given in patent publication US6603046B1, “Bis-aromatic a,β-unsaturated ketones” (Lica Pharmaceuticals A/S, priority 1992, dated 2003).

The molecules below were run on L. major promastigotes (assay: L. major promastigotes from 4-days cultures, 3H-thymidine uptake (Examples 5, 14)). Settings: Leishmania major; Table 14.1; 0.5 μg/ml; read-out: percentage inhibition of promastigotes (upper figure).
Format: cell-based, Leishmania major
Protocol: Parasite cultures. The same parasite culture as described in Example 4. Promastigotes were harvested on day 4 of the culture and used for the parasiticidal assay.
Effect on promastigotes. […] Following incubation, […] of ^3H-thymidine was added to each well and further incubated for 18 hrs. Promastigotes were then harvested on filter paper by means of a cell harvester (Skatron, Lierbyen, Norway), extensively washed with distilled water and counted in a scintillation counter (Minaxi Ti-Carb 4000, United Technologies, Packard, USA).
L. major promastigotes. The L. major promastigotes were prepared as described in Example 4 and harvested after 4 days.

First: COc1ccc(/C=C/C(=O)c2ccc(O)cc2)cc1OC [drawing 73]
Second: C=CCOc1ccc(C(=O)/C=C/c2ccc(OC)cc2OC)cc1 [drawing 82]
The inhibition at 0.5 µg/mL of the first is lower: 17.8% for the first, 35.4% for the second.

Same assay, conditions: Leishmania major; Table 14.1; 1 μg/ml; read-out: percentage inhibition of promastigotes (upper figure)

Going from COc1ccc(/C=C/C(=O)c2ccc(O)cc2)cc1OC [drawing 73] to C=CCOc1ccc(C(=O)/C=C/c2ccc(OC)cc2OC)cc1 [drawing 82], the inhibition at 1 µg/mL rises from 34.3% to 62.8%.

Same assay, conditions: Leishmania major; Table 14.1; 5 μg/ml; read-out: percentage inhibition of promastigotes (upper figure)

Compared with COc1ccc(/C=C/C(=O)c2ccc(O)cc2)cc1OC [drawing 73], C=CCOc1ccc(C(=O)/C=C/c2ccc(OC)cc2OC)cc1 [drawing 82] is higher in inhibition at 5 µg/mL: 65.6% for the first, 71.4% for the second.

Same assay, conditions: Leishmania major; Table 14.1; 10 μg/ml; read-out: percentage inhibition of promastigotes (upper figure)

First: COc1ccc(/C=C/C(=O)c2ccc(O)cc2)cc1OC [drawing 73]
Second: C=CCOc1ccc(C(=O)/C=C/c2ccc(OC)cc2OC)cc1 [drawing 82]
The inhibition at 10 µg/mL of the first is lower: 80% for the first, 85.4% for the second.

The molecules below were run on human lymphocytes (assay: Lymphocyte Proliferation Assay, 3H-thymidine incorporation (Example 13)). Settings: Homo sapiens, Lymphocyte, read-out: inhibition of lymphocytes (lower figure).

COc1ccc(/C=C/C(=O)c2ccc(O)cc2)cc1OC [drawing 73] and C=CCOc1ccc(C(=O)/C=C/c2ccc(OC)cc2OC)cc1 [drawing 82] are the same in inhibition at 0.5 µg/mL: 0% for the first, 0% for the second.

First: COc1ccc(/C=C/C(=O)c2ccc(O)cc2)cc1OC [drawing 73]
Second: C=CCOc1ccc(C(=O)/C=C/c2ccc(OC)cc2OC)cc1 [drawing 82]
The inhibition at 1 µg/mL of the first is lower: 0.1% for the first, 1.7% for the second.

First: COc1ccc(/C=C/C(=O)c2ccc(O)cc2)cc1OC [drawing 73]
Second: C=CCOc1ccc(C(=O)/C=C/c2ccc(OC)cc2OC)cc1 [drawing 82]
The inhibition at 5 µg/mL of the first is lower: 5.2% for the first, 5.9% for the second.

Going from COc1ccc(/C=C/C(=O)c2ccc(O)cc2)cc1OC [drawing 73] to C=CCOc1ccc(C(=O)/C=C/c2ccc(OC)cc2OC)cc1 [drawing 82], the inhibition at 10 µg/mL falls from 27.4% to 5.5%.

These molecules were tested on P. falciparum (assay: P. falciparum growth in vitro (Table 14.1, strain not stated)). Settings: Plasmodium falciparum; 0.5 μg/ml; read-out: inhibition of malaria parasites (middle figure) (converted).
Format: cell-based
Protocol: The P. falciparum experimental setup was as described in Example 15.
Testing of the effect of drugs and serum on the in vitro growth of the parasites. The experiments in which compounds were tested for their ability to inhibit parasite growth were performed by a modification of the method originally described by Jensen et al. (1982). Fifty μl of parasitized erythrocytes (parasitemia approximately 1%) in a concentration of 5×10^8/ml and 50 μl of RPMI medium containing different concentrations of the test compound was added to each well of a 96 well flat-bottomed microtiter plate (Nunc). The cultures were then incubated for 48 hours, 24 hours before termination of the culture adding 20 μl of 3-H-hypoxanthine (40 uCi/ml) (New England Nuclear, Boston, Mass., USA) was added to each well. The cultures were then harvested onto glass fiber filters using a Skatron cell harvester (Skatron, Lierbyen, Norway), and the incorporation of 3-H-hypoxanthine into the DNA of dividing parasites was determined by liquid scintillation spectrometry.

First: COc1ccc(/C=C/C(=O)c2ccc(O)cc2)cc1OC [drawing 73]
Second: C=CCOc1ccc(C(=O)/C=C/c2ccc(OC)cc2OC)cc1 [drawing 82]
The inhibition at 0.5 µg/mL of the first is lower: 21% for the first, 31.1% for the second.

Same assay, conditions: Plasmodium falciparum; 1 μg/ml; read-out: inhibition of malaria parasites (middle figure) (converted)

First: COc1ccc(/C=C/C(=O)c2ccc(O)cc2)cc1OC [drawing 73]
Second: C=CCOc1ccc(C(=O)/C=C/c2ccc(OC)cc2OC)cc1 [drawing 82]
The inhibition at 1 µg/mL of the first is lower: 35.1% for the first, 36.5% for the second.

Same assay, conditions: Plasmodium falciparum; 5 μg/ml; read-out: inhibition of malaria parasites (middle figure) (converted)

Compared with COc1ccc(/C=C/C(=O)c2ccc(O)cc2)cc1OC [drawing 73], C=CCOc1ccc(C(=O)/C=C/c2ccc(OC)cc2OC)cc1 [drawing 82] is higher in inhibition at 5 µg/mL: 39.9% for the first, 74.4% for the second.

Same assay, conditions: Plasmodium falciparum; 10 μg/ml; read-out: inhibition of malaria parasites (middle figure) (converted)

Going from COc1ccc(/C=C/C(=O)c2ccc(O)cc2)cc1OC [drawing 73] to C=CCOc1ccc(C(=O)/C=C/c2ccc(OC)cc2OC)cc1 [drawing 82], the inhibition at 10 µg/mL rises from 73.4% to 97.3%.
